Measured values reported in patent US8399417B2, “Food” (Ajinomoto Co., Inc., priority 2007, dated 2013).
Starred links: 1 amine or outer side, 2 acyl side, 3 side chain; linkers in the order of their positions; H or OH if unused. Non-standard residues stand in square brackets, D forms with d. No end group written: not given here. γGlu = O=C(O)[C@H](CCC(=O)[*:2])N[*:1]; Orn = NCCC[C@H](N)C(=O)O

Key:
human calcium receptor = biological target: T1, human calcium receptor (Homo sapiens, UniProt P41180); assay: Calcium receptor-activating effect: Ca ion concentration-dependent Cl ionic current in Xenopus laevis oocyte expression system; assay type: cell-based; settings: for Activity (lowest concentration at which current was detected): peptide added at 1,000 to 0.1 μM to potential-clamped oocytes, Table 1
T1 construct: expressed in transfected cells; host or cells: Xenopus laevis oocytes injected with cRNA; the gene was PCR-cloned from human kidney cDNA (Clontech) into pBR322
T1 sequence (P41180 20-1078): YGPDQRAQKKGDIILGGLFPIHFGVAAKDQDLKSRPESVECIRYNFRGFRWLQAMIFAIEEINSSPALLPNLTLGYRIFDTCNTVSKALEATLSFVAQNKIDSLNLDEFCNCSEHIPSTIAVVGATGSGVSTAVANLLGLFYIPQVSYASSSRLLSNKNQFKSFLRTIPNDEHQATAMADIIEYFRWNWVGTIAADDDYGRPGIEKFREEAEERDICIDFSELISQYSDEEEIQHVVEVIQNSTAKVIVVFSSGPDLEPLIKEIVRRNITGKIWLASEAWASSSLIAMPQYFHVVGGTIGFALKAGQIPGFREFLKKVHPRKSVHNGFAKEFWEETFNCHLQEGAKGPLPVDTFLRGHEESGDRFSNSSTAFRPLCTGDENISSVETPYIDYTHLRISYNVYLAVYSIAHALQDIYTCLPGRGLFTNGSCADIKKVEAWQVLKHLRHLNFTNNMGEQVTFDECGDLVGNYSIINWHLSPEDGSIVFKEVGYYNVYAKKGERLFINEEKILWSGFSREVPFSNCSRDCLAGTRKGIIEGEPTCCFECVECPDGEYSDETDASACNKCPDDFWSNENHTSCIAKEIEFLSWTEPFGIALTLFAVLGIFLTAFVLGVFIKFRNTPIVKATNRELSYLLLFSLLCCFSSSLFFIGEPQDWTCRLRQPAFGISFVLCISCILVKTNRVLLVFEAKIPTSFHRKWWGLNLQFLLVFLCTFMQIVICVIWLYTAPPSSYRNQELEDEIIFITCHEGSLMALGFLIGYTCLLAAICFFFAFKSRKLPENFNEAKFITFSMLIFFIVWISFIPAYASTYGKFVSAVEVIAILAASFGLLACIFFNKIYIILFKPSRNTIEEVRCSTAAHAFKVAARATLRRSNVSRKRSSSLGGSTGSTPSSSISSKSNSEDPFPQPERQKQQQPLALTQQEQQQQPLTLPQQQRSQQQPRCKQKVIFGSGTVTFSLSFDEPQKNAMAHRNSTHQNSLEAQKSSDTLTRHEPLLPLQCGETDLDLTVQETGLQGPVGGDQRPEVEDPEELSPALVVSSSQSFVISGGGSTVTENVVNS
Method: For evaluation of the calcium receptor-activating effect, a Ca ion concentration-dependent Cl ionic current measuring method using a Xenopus laevis oocyte expression system was used. If each activator is added to Xenopus laevis oocytes expressing the calcium receptor, intracellular Ca ions increase. Then, the Ca ion concentration-dependent Cl channel opens, and the intracellular current value changes as an ionic current. By measuring the change in the intracellular current value, whether the calcium receptor-activating effect is present or not can be determined.
Specifically, the abdomen of Xenopus laevis was opened, and an egg batch was taken out and then treated with a 1% collagenase solution at 20° C. for 2 hours to obtain individual oocytes. Into the oocytes, 50 nl of 1 μg/μl receptor cRNA or 50 nl of sterilized water per oocyte were injected by using a micro glass capillary, and the oocytes were cultured at 18° C. for 2 to 3 days. For the culture, a solution obtained by adding 2 mM pyruvic acid, 10 U/ml penicillin, and 10 μg/ml streptomycin to the solution in Reference Example 2 was used. After the culture, a test solution was added to the oocytes injected with cRNA or sterilized water. Electrophysiological measurement was performed by using an amplifier Geneclamp 500 (manufactured by Axon) and recording software AxoScope 9.0 (manufactured by Axon). The oocytes were membrane potential-clamped at −70 mV by the double electrode potential clamp method, and the intracellular current via the Ca ion concentration-dependent Cl ion was measured. The maximum value of the intracellular current was defined as the response current value.
The calcium receptor-activating effect of L-amino acids was evaluated by using the method described in Reference Example 6. That is, oocytes injected with cRNA of the calcium receptor or sterilized water were prepared, and membrane potential-clamped at −70 mV by the double electrode potential clamp method. To the potential-clamped oocytes, alanine (10 mM), arginine (10 mM), asparagine (10 mM), aspartic acid (10 mM), cysteine (10 mM), glutamine (10 mM), glutamic acid (10 mM), glycine (10 mM), histidine (10 mM), isoleucine (10 mM), leucine (10 mM), lysine (10 mM), methionine (10 mM), phenylalanine (10 mM), proline (10 mM), serine (10 mM), threonine (10 mM), tryptophan (10 mM), tyrosine (10 mM), valine (10 mM), ornithine (10 mM), taurine (10 mM), or hydroxyproline (10 mM) was added, and Ca ion concentration-dependent Cl response current was measured. […] 25, 2000, 97(9): 4814-9.
The calcium receptor-activating effect of D-cysteine was evaluated by using the method described in Reference Example 6. That is, oocytes injected with cRNA of the calcium receptor or sterilized water were prepared, and membrane potential-clamped at −70 mV by the double electrode potential clamp method. To the potential-clamped oocytes, D-cysteine (10 mM), L-cysteine (10 mM), D-tryptophan (10 mM), or L-tryptophan (10 mM) was added, and Ca ion concentration-dependent Cl response current was measured.
The calcium receptor-activating effect of a peptide was evaluated by using the method described in Reference Example 6. That is, oocytes injected with cRNA of the calcium receptor or sterilized water were prepared, and membrane potential-clamped at −70 mV by the double electrode potential clamp method.
The calcium receptor-activating effects of peptides were evaluated in the same manner as that of Reference Example 10. Each of the peptides shown in Table 1 was added to potential-clamped oocytes at 1,000 μM, 300 μM, 100 μM, 30 μM, 10 μM, 3 μM, 1 μM, 0.3 μM, and 0.1 μM, and Ca ion concentration-dependent Cl response current was measured.

[1] = Kokumi-imparting activity intensity, quantitative sensory evaluation test; assay type: in vivo, human; settings: 0.1 g/dl; for Kokumi intensity, Aftertaste / Kokumi intensity, Initial and middle taste: control 0, glutathione 3 points
Method: The quantitative sensory evaluation test was performed as follows. […] It should be noted that a sample, which became acidic after the sample had been dissolved, was adjusted with NaOH to pH 6.8 to 7.2 before use. […] The test was performed with n=3 based on the following sensory evaluation scores: control (0 point) and glutathione addition (3 points).
The quantitative sensory evaluation test was performed as follows. […] It should be noted that a sample, which became acidic after the sample had been dissolved, was adjusted with NaOH to pH 6.8 to 7.2 before use. The test was performed with n=5 based on the following sensory evaluation scores: control (0 point) and glutathione addition (3 points).
The quantitative sensory evaluation test was performed as follows. […] It should be noted that a sample, which became acidic after the sample had been dissolved, was adjusted with NaOH to pH 6.8 to 7.2 before use. The test was performed with n=12 based on the following sensory evaluation scores: control (0 point) and glutathione addition (3 points).

[2] = sodium glutamate, inosine monophosphate, sodium chloride solution, n=3, Table 3

## [γGlu]-Val-Phe
Human calcium receptor
  Activity (lowest concentration at which current was detected): 30 µM

## [γGlu]-Val-Cys
Human calcium receptor
  Activity (lowest concentration at which current was detected): 10 µM

## [γGlu]-Met
Human calcium receptor; peptide 500 μM, FIG. 4
  calcium receptor-activating effect (Cl response current): definite calcium receptor-activating effect
[1]; n=3, Table 3
  Taste profile: Thickness and growth are slightly
  Kokumi intensity, Aftertaste: 0.4 points
[1]; [2]
  Kokumi intensity, Initial and middle taste: 1.5 points

## [γGlu]-Val-Ser
Human calcium receptor
  Activity (lowest concentration at which current was detected): 30 µM

## [γGlu]-Val-Gln
Human calcium receptor
  Activity (lowest concentration at which current was detected): 10 µM

## [γGlu]-Cys
Human calcium receptor; peptide 50 μM, FIG. 4
  calcium receptor-activating effect (Cl response current): definite calcium receptor-activating effect
[1]; n=5, Table 4
  Kokumi intensity, Aftertaste: 2.0 points
  Kokumi intensity, Initial and middle taste: 2.0 points

## [γGlu]-Ala
Human calcium receptor; peptide 50 μM, FIG. 4
  calcium receptor-activating effect (Cl response current): definite calcium receptor-activating effect
[1]; n=3, Table 3
  Kokumi intensity, Aftertaste: 0.2 points
[1]; [2]
  Kokumi intensity, Initial and middle taste: 0.5 points

## Cys-Met
Human calcium receptor; peptide 1 mM, FIG. 4
  calcium receptor-activating effect (Cl response current): definite calcium receptor-activating effect

## γ-Glu-Val-Asp
Human calcium receptor
  Activity (lowest concentration at which current was detected): 1,000 μM

## N[C@@H](Cc1c[nH]c2ccccc12)C(=O)O [tryptophan, reference compound]
Human calcium receptor; L-amino acid 10 mM, FIG. 2
  calcium receptor-activating effect (Cl response current): definite calcium receptor-activating effect

## N[C@@H](CCC(=O)N[C@@H](CSN=O)C(=O)NCC(=O)O)C(=O)O [γ-Glu-Cys(SNO)-Gly]
Human calcium receptor; peptide 50 μM, FIG. 4
  calcium receptor-activating effect (Cl response current): definite calcium receptor-activating effect

## N[C@@H](CS)C(=O)O [cysteine, reference compound]
Human calcium receptor; L-amino acid 10 mM, FIG. 2
  calcium receptor-activating effect (Cl response current): definite calcium receptor-activating effect

## [γGlu]-Val-Thr
Human calcium receptor
  Activity (lowest concentration at which current was detected): 1,000 μM

## [γGlu]-Val-Arg
Human calcium receptor
  Activity (lowest concentration at which current was detected): 1,000 μM

## N[C@@H](Cc1ccccc1)C(=O)O [phenylalanine, reference compound]
Human calcium receptor; L-amino acid 10 mM, FIG. 2
  calcium receptor-activating effect (Cl response current): definite calcium receptor-activating effect

## N[C@H](CS)C(=O)O [D-cysteine]
Human calcium receptor; D-amino acid 10 mM, FIG. 3
  calcium receptor-activating effect (Cl response current): definite calcium receptor-activating effect

## Cys-Gly
Human calcium receptor; peptide 1 mM, FIG. 4
  calcium receptor-activating effect (Cl response current): definite calcium receptor-activating effect

## [γGlu]-Gly-Gly
Human calcium receptor
  Activity (lowest concentration at which current was detected): 30 µM

## [γGlu]-Val-Glu
Human calcium receptor
  Activity (lowest concentration at which current was detected): 1,000 μM

## [γGlu]-Val-[Orn]
Human calcium receptor
  Activity (lowest concentration at which current was detected): 100 µM

## Asp-Gly
Human calcium receptor; peptide 1 mM, FIG. 4
  calcium receptor-activating effect (Cl response current): definite calcium receptor-activating effect

## Gly-Cys
Human calcium receptor; peptide 500 μM, FIG. 4
  calcium receptor-activating effect (Cl response current): definite calcium receptor-activating effect

## [γGlu]-Val-Pro
Human calcium receptor
  Activity (lowest concentration at which current was detected): 30 µM

## [γGlu]-Val-Asn
Human calcium receptor
  Activity (lowest concentration at which current was detected): 30 µM

## [γGlu]-Gly
Human calcium receptor; peptide 500 μM, FIG. 4
  calcium receptor-activating effect (Cl response current): definite calcium receptor-activating effect

## Leu-Asp
Human calcium receptor; peptide 1 mM, FIG. 4
  calcium receptor-activating effect (Cl response current): definite calcium receptor-activating effect

## [γGlu]-Val
Human calcium receptor; peptide 50 μM, FIG. 4
  calcium receptor-activating effect (Cl response current): definite calcium receptor-activating effect
[1]; n=3, Table 3
  Kokumi intensity, Aftertaste: 1.0 points
[1]; n=5, Table 4
  Kokumi intensity, Aftertaste: 1.0 points
  Kokumi intensity, Initial and middle taste: 3.0 points
[1]; [2]
  Kokumi intensity, Initial and middle taste: 3.0 points

## N[C@@H](Cc1ccc(O)cc1)C(=O)O [tyrosine, reference compound]
Human calcium receptor; L-amino acid 10 mM, FIG. 2
  calcium receptor-activating effect (Cl response current): definite calcium receptor-activating effect

## γ-Glu-Cys(S-Me)-Gly
Human calcium receptor
  Activity (lowest concentration at which current was detected): 3 µM

## [γGlu]-Thr
Human calcium receptor; peptide 50 μM, FIG. 4
  calcium receptor-activating effect (Cl response current): definite calcium receptor-activating effect

## Glu-Cys
Human calcium receptor; peptide 50 μM, FIG. 4
  calcium receptor-activating effect (Cl response current): definite calcium receptor-activating effect

## γ-Glu-t-Leu
Human calcium receptor
  Activity (lowest concentration at which current was detected): 100 µM

## [γGlu]-Val-His
Human calcium receptor
  Activity (lowest concentration at which current was detected): 100 µM

## γ-Glu-Tau
Human calcium receptor
  Activity (lowest concentration at which current was detected): 300 µM

## [γGlu]-Val-Met
Human calcium receptor
  Activity (lowest concentration at which current was detected): 1,000 μM

## [γGlu]-[γGlu]-Val
Human calcium receptor
  Activity (lowest concentration at which current was detected): 1,000 μM

## [γGlu]-Ser-Gly
Human calcium receptor
  Activity (lowest concentration at which current was detected): 30 µM

## [γGlu]-Val-Lys
Human calcium receptor
  Activity (lowest concentration at which current was detected): 1,000 μM

## [γGlu]-Val-Val
Human calcium receptor
  Activity (lowest concentration at which current was detected): 1,000 μM

## γ-Glu-Orn
Human calcium receptor; peptide 500 μM, FIG. 4
  calcium receptor-activating effect (Cl response current): definite calcium receptor-activating effect

## N[C@@H](Cc1c[nH]cn1)C(=O)O [histidine, reference compound]
Human calcium receptor; L-amino acid 10 mM, FIG. 2
  calcium receptor-activating effect (Cl response current): definite calcium receptor-activating effect

## γ-Glu-Cys(S-allyl)-Gly
Human calcium receptor
  Activity (lowest concentration at which current was detected): 100 µM
